Results as given in patent US7273614B2 (priority 1993, dated 2007).
Entries after “also recorded” stand apart in the source; their conditions may differ. Where two headings read alike, the source gives them in different places. Peptide text beside a SMILES is read from it.

Assays:
HIV-1LAI [1] = conditions: Wild et al. 1992; cited from earlier work
HIV-1LAI [2] = assay: Cell free virus infection assay (CEM CD4+ cells, reverse transcriptase readout); type: cell-based; conditions: FIG. 1 legend
Description: (§1) Synthetic peptides were incubated at 37° C. with either 247 TCID50 (for experiment depicted in FIG. 2), or 62 TCID50 (for experiment depicted in FIG. 3) units of HIV-1LAI virus or 25 TCID50 units of HIV-2NIHZ and CEM CD4+ cells at peptide concentrations of 0, 0.04, 0.4, 4.0, and 40 μg/ml for 7 days. The resulting reverse transcriptase (RT) activity in counts per minute was determined using the assay described, below, in Section 6.1.5. See, Reed, L. J. et al., 1938, Am. J. Hyg. 27: 493-497 for an explanation of TCID50 calculations.
(§2) The micro-reverse transcriptase (RT) assay was adapted from Goff et al. (Goff, S. et al., 1981, J. Virol. 38:239-248) and Willey et al. (Willey, R. et al., 1988, J. Virol. 62:139-147). Supernatants from virus/cell cultures are adjusted to 1% Triton-X100. A 10 μl sample of supernatant was added to 50 μl of RT cocktail in a 96-well U-bottom microtitre plate and the samples incubated at 37° C. for 90 min. The RT cocktail contained 75 mM KCl, 2 mM dithiothreitol, 5 mM MgCl2, 5 μg/ml poly A (Pharmacia, cat. No. 27-4110-01), 0.25 units/ml oligo dT (Pharmacia, cat. No. 27-7858-01), 0.05% NP40, 50 mM Tris-HCl, pH 7.8, 0.5 μM non-radioactive dTTP, and 10 μCi/ml ^32P-dTTP (Amersham, cat. No. PB.10167). […]

[3] = target: viral gp41 of HIV-1 (HIV-1IIIB) (HIV-1 IIIB) (UniProt P03377); assay: cell-based or functional assay
HIV-2 = assay: Cell fusion assay: HIV-2 mediated syncytia formation; type: cell-based; conditions: failed to block at highest concentration; FIG. 5
Description: Approximately 7×10^4 Molt cells were incubated with 1×10^4 CEM cells chronically infected with the HIV-1LAI virus in 96-well plates (one-half area cluster plates; Costar, Cambridge, Mass.) in a final volume of 100 μl culture medium as previously described (Matthews, T. J. et al., 1987, Proc. Natl. Acad. Sci. USA 84: 5424-5428). Peptide inhibitors were added in a volume of 10 μl and the cell mixtures were incubated for 24 hr. at 37° C. At that time, multinucleated giant cells were estimated by microscopic examination at a 40× magnification which allowed visualization of the entire well in a single field.

Fab-d = assay: ELISA analysis of DP178 binding to the leucine zipper motif of gp41 (Fab-d ELISA); design: species or system human; conditions: FIG. 10
Description: Each well was washed three times with distilled water then blocked with 3% bovine serum albumin (BSA) for 2 hours. After blocking, peptides with 0.5% BSA in TBST (40 mM Tris-HCl pH7.5, 150 mM NaCl, 0.05% Tween 20) were added to the ELISA plates and incubated at room temperature for 1 hour. After washing three times with TBST, Fab-d was added at a concentration of 10 ng/ml with 0.5% BSA in TBST. The plates were washed three times with TBST after incubation at room temperature for 1 hour. Horse radish peroxidase (HRP) conjugated goat antihuman Fab antiserum at a 2000 fold dilution in TBST with 0.5% BSA was added to each well and incubated at room temperature for 45 minutes. The plates were then washed four times with TBST. The peroxidase substrate o-phenylene diamine (2.5 mg/ml) and 0.15% H2O2 were added to develop the color. The reaction was stopped with an equal volume of 4.5 N H2SO4 after incubation at room temperature for 10 minutes. The optical density of the stopped reaction mixture was measured with a micro plate reader (Molecular Design) at 490 nm.

HIV-2NIHZ = assay: Cell free virus infection assay (CEM CD4+ cells, reverse transcriptase readout); type: cell-based
Description: as §1, §2

HIV-1IIIB = type: cell-based; conditions: 10 nM peptide
Description: CEM cells (7×10^4) were incubated with HIV-1IIIB chronically infected CEM cells (10^4) in 96-well flat-bottomed half-area plates (Costar) in 100 μl culture medium. Peptide and fusion proteins at various concentrations in 10 μl culture medium were incubated with the cell mixtures at 37° C. for 24 hours. Multinucleated syncytia were estimated with microscopic examination.

HIV-1/IIIb = assay: Anti-HIV assays of DP107 and DP178 truncations and mutations; type: cell-based; conditions: FIGS. 49, 50
Source text: Anti-HIV assays: The antiviral assays performed were as those described, above, in Section 6.1. Assays utilized HIV-1/IIIb and/or HIV-2 NIHZ isolates. Purified peptides were used, unless otherwise noted in FIGS. 49A-L.

CEM cells = assay: Cell proliferation and toxicity assay; type: cell-based
Description: Cell proliferation and toxicity assay: Approximately 3.8×10^5 CEM cells for each peptide concentration were incubated for 3 days at 37° C. in T25 flasks. Peptides tested were DP178 (SEQ ID:1) and DP-116 (SEQ ID:9), as described in FIG. 1. Peptides were synthesized as described, above, in Section 6.1. The concentrations of each peptide used were 0, 2.5, 10, and 40 μg/ml. Cell counts were taken at incubation times of 0, 24, 48, and 72 hours.

Compound: CC[C@H](C)[C@H](NC(=O)[C@H](CCCNC(=N)N)NC(=O)[C@H](C)NC(=O)[C@H](CCC(N)=O)NC(=O)[C@H](CC(C)C)NC(C)=O)C(=O)N[C@@H](CC(C)C)C(=O)N[C@@H](C)C(=O)N[C@H](C(=O)N[C@@H](CCC(=O)O)C(=O)N[C@@H](CCCNC(=N)N)C(=O)N[C@@H](Cc1ccc(O)cc1)C(=O)N[C@@H](CC(C)C)C(=O)N[C@@H](CCCCN)C(=O)N[C@@H](CC(=O)O)C(=O)N[C@@H](CCC(N)=O)C(=O)N[C@@H](CCC(N)=O)C(=O)N[C@@H](CCC(N)=O)C(N)=O)C(C)C [DP-116] (Ac-LQARILAVERYLKDQQQ-NH2)
- activity in cell-free HIV-1 infection assay, previously shown (in words) (HIV-1LAI [1]): inactive; also recorded: ineffective as a HIV inhibitor
- inhibition of HIV-1 cell free virus infection (in words) (HIV-1LAI [2]): negative for inhibition of HIV-1 infection

Compound: DP107 (SEQ ID NO: 89), synthetic peptide corresponding to amino acids 558 to 595 of HIV-1LAI gp41
- Cell fusion (IC90) [3]: 1 µM
- HIV infectivity (IC90) [3]: 1 µM

Compound: DP178 (SEQ ID NO:1), synthetic peptide corresponding to amino acids 638 to 673 of HIV-1LAI gp41
- Cell fusion (IC90) [3]: 0.001 µM
- HIV infectivity (IC90) [3]: 0.08 µM

Compound: Enfuvirtide
- peptide concentration blocking HIV-2 mediated syncytia formation (HIV-2): > 10 µg/mL
- Fab-d binding (in words) (Fab-d): failed to bind
- IC50 for HIV-2NIHZ (in words) (HIV-2NIHZ; 25 TCID50 HIV-2NIHZ, CEM cells, 7 days, FIG. 3): much higher IC50
- potency as HIV-1 inhibitor relative to HIV-2 inhibitor (HIV-2NIHZ; HIV-1LAI vs HIV-2NIHZ cell-free infection): two logs more potent
- concentration affording complete protection against syncytia formation (lowest concentration tested) (HIV-1; HIV-1LAI, FIG. 4): ≤ 12.5 ng/mL
- concentration affording complete protection against syncytia formation (lowest concentration tested) (HIV-1; HIV-1MN, HIV-1RF, HIV-1SF2, FIG. 4): ≤ 100 ng/mL
- concentration completely blocking virus induced syncytia formation (lowest effective inhibitory concentration) (HIV-1; HIV-1 mediated cell-cell fusion): 1 to 10 ng/mL
- selectivity as inhibitor of HIV-1-mediated over HIV-2-mediated cell fusion (HIV-1; HIV-1 vs HIV-2): 4 log
- peptide concentration blocking HIV-1-mediated syncytia formation (HIV-1; HIV-1 vs HIV-2 comparison, FIG. 5): below 1 ng/ml
- syncytia in the presence of peptide (in words) (HIV-1IIIB): no observable syncytia

Compound: H-YTNTIYTLLEESQNQQEKNEQELLELDKWASLWNWF-OH [DP-185]
- HIV-1-mediated syncytia formation (in words) (HIV-1): block HIV-1-mediated syncytia formation
- concentration with inhibitory activity on HIV-1-induced syncytia formation (HIV-1; lowest concentration tested, FIG. 4): ≤ 312.5 ng/mL

Compound: M41, maltose binding protein fusion with the extracellular domain of gp41 (540-686) (from UniProt P03377 540-686)
- Cell fusion (IC90) [3]: > 50 µM
- HIV infectivity (IC90) [3]: > 16 µM

Compound: T-235: SEQ ID NO. 162; DP178 truncation/mutation peptide (RMKQLEDKVEELLSKLELDKWASLWNWF)
- anti-HIV antiviral activity (in words) (HIV-1/IIIb): high level of antiviral activity

Compound: T-377: SEQ ID NO. 167; DP178 truncation/mutation peptide (CLELDKWASLANWFC)
- anti-HIV antiviral activity (in words) (HIV-1/IIIb): high level of antiviral activity

Compound: T-378: SEQ ID NO. 168; DP178 truncation/mutation peptide (CLELDKWASLWNFFC)
- anti-HIV antiviral activity (in words) (HIV-1/IIIb): high level of antiviral activity

Compound: T-381: SEQ ID NO. 164; DP178 truncation/mutation peptide (RMKQLEDKVEELLSKNYHLENELELDKWASLWNWF)
- anti-HIV antiviral activity (in words) (HIV-1/IIIb): high level of antiviral activity

Compound: T-590: SEQ ID NO. 167; DP178 truncation/mutation peptide (CLELDKWASLANWFC)
- anti-HIV antiviral activity (in words) (HIV-1/IIIb): high level of antiviral activity

Compound: T-591: SEQ ID NO. 168; DP178 truncation/mutation peptide (CLELDKWASLWNFFC)
- anti-HIV antiviral activity (in words) (HIV-1/IIIb): high level of antiviral activity

Compound: T-611: SEQ ID NO. 175; DP178 truncation/mutation peptide (LKLDKWASLWNWF)
- anti-HIV antiviral activity (in words) (HIV-1/IIIb): high level of antiviral activity

Compound: T-677: SEQ ID NO. 165; DP178 truncation/mutation peptide (FWNWLSAWKDLELYPGSLELDKWASLWNWF)
- anti-HIV antiviral activity (in words) (HIV-1/IIIb): high level of antiviral activity

Compound: enfuvirtide
- non-cytotoxic concentration relative to HIV inhibitory dose (CEM cells; 40 μg/ml vs HIV inhibitory dose): greater than 3 log
- cytotoxic effects on cells in culture (in words) (CEM cells; up to highest peptide concentration tested, 40 μg/ml, CEM cells, 3 days): not toxic to cells; also recorded: non-cytotoxic; also recorded: no cytotoxic effects
